Measurements taken from patent US9963442B2, “Pyridones as herbicides” (E I DU PONT DE NEMOURS AND COMPANY, priority 2014, dated 2018).

Columns and labels:
Format in all cases: in vivo
[1] = tested on: oilseed rape (Brassica napus); test: Test C postemergence; conditions: scale 0 to 100, 0 is no effect, 100 is complete control
Text: (§1) Seeds of plant species selected from blackgrass (Alopecurus myosuroides), Italian ryegrass (Lolium multiflorum), winter wheat (Triticum aestivum), galium (catchweed bedstraw, Galium aparine), corn (Zea mays), large (Lg) crabgrass (Digitaria sanguinalis), giant foxtail (Setaria faberii), johnsongrass (Sorghum halepense), lambsquarters (Chenopodium album), morningglory (Ipomoea coccinea), yellow nutsedge (Cyperus esculentus), pigweed (Amaranthus retroflexus), ragweed (common ragweed, Ambrosia elatior), soybean (Glycine max), barnyardgrass (Echinochloa crus-galli), oilseed rape (Brassica napus), waterhemp (common waterhemp, Amaranthus rudis), and velvetleaf (Abutilon theophrasti) were planted into a blend of loam soil and sand and treated preemergence with test chemicals formulated in a non-phytotoxic solvent mixture which included a surfactant. At the same time, plants selected from these crop and weed species and also chickweed (common chickweed, Stellaria media), kochia (Kochia scoparia), and wild oat (Avena fatua), were planted in pots containing Sunshine Redi-Earth® planting medium comprising spaghnum peat moss, vermiculite, starter nutrients and dolomitic limestone and treated with postemergence applications of test chemicals formulated in the same manner. Plants ranged in height from 2 to 18 cm (1- to 4-leaf stage) for postemergence treatments. Treated plants and controls were maintained in a greenhouse for 13 to 15 days, after which time all species were compared to controls and visually evaluated. Plant response ratings, summarized in Table C, are based on a scale of 0 to 100 where 0 is no effect and 100 is complete control. A dash (-) response means no test result.

corn (Zea mays) = test: Test C postemergence; conditions: scale 0 to 100, 0 is no effect, 100 is complete control
Text: as §1

[2] = tested on: morningglory (Ipomoea coccinea); test: Test C postemergence; conditions: scale 0 to 100, 0 is no effect, 100 is complete control
Text: as §1

[3] = tested on: Italian ryegrass (Lolium multiflorum); test: Test C postemergence; conditions: scale 0 to 100, 0 is no effect, 100 is complete control
Text: as §1

[4] = tested on: pigweed (Amaranthus retroflexus); test: Test C postemergence; conditions: scale 0 to 100, 0 is no effect, 100 is complete control
Text: as §1

[5] = tested on: giant foxtail (Setaria faberii); test: Test C postemergence; conditions: scale 0 to 100, 0 is no effect, 100 is complete control
Text: as §1

kochia (Kochia scoparia) [6] = test: Test C postemergence; conditions: scale 0 to 100, 0 is no effect, 100 is complete control
Text: as §1

[7] = tested on: blackgrass (Alopecurus myosuroides); test: Test C postemergence; conditions: scale 0 to 100, 0 is no effect, 100 is complete control
Text: as §1

wild oat (Avena fatua) = test: Test C postemergence; conditions: scale 0 to 100, 0 is no effect, 100 is complete control
Text: as §1

[8] = tested on: winter wheat (Triticum aestivum); test: Test C postemergence; conditions: scale 0 to 100, 0 is no effect, 100 is complete control
Text: as §1

[9] = tested on: velvetleaf (Abutilon theophrasti); test: Test C postemergence; conditions: scale 0 to 100, 0 is no effect, 100 is complete control
Text: as §1

[10] = tested on: yellow nutsedge (Cyperus esculentus); test: Test C postemergence; conditions: scale 0 to 100, 0 is no effect, 100 is complete control
Text: as §1

[11] = tested on: chickweed (common chickweed, Stellaria media); test: Test C postemergence; conditions: scale 0 to 100, 0 is no effect, 100 is complete control
Text: as §1

[12] = tested on: waterhemp (common waterhemp, Amaranthus rudis); test: Test C postemergence; conditions: scale 0 to 100, 0 is no effect, 100 is complete control
Text: as §1

[13] = tested on: barnyardgrass (Echinochloa crus-galli); test: Test C postemergence; conditions: scale 0 to 100, 0 is no effect, 100 is complete control
Text: as §1

[14] = tested on: Italian ryegrass (Lolium multiflorum); test: Test A preemergence, directed soil spray; conditions: approx. 10 days
How it was run: (§2)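 Seeds sown in loam–sand blend received a directed soil spray preemergence; plants at 2–10 cm, one- to two-leaf stage, were sprayed postemergence. Compounds in non-phytotoxic solvent with surfactant. After about 10 days in greenhouse, injury rated visually versus untreated controls, 0 (no effect) to 100 (complete control).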

[15] = tested on: pigweed (Amaranthus retroflexus); test: Test A preemergence, directed soil spray; conditions: approx. 10 days
How it was run: as §2

[16] = tested on: giant foxtail (Setaria faberii); test: Test A preemergence, directed soil spray; conditions: approx. 10 days
How it was run: as §2

kochia (Kochia scoparia) [17] = test: Test A preemergence, directed soil spray; conditions: approx. 10 days
How it was run: as §2

[18] = tested on: ragweed (common ragweed, Ambrosia elatior); test: Test A preemergence, directed soil spray; conditions: approx. 10 days
How it was run: as §2

[19] = tested on: barnyardgrass (Echinochloa crus-galli); test: Test A preemergence, directed soil spray; conditions: approx. 10 days
How it was run: as §2

For O=c1cccc(Oc2ncc(Cl)cn2)n1-c1ccc(C(F)(F)F)cc1 [Compound 10], the “Plant response rating, Oilseed Rape” value ([1]; 16 g ai/ha) was 5, the “Plant response rating, Oilseed Rape” value ([1]; 31 g ai/ha) was 25 and the “Plant response rating, Oilseed Rape” value ([1]; 62 g ai/ha) was 80. For the same molecule, the “Plant response rating, Oilseed Rape” value ([1]; 125 g ai/ha) was 80, the “Plant response rating, Corn” value (corn (Zea mays); 16 g ai/ha) was 20 and the “Plant response rating, Corn” value (corn (Zea mays); 31 g ai/ha) was 15. The “Plant response rating, Corn” value (corn (Zea mays); 62 g ai/ha) was 25, the “Plant response rating, Corn” value (corn (Zea mays); 125 g ai/ha) was 25 and the “Plant response rating, Morningglory” value ([2]; 16 g ai/ha) was 50. For the same molecule, the “Plant response rating, Morningglory” value ([2]; 31 g ai/ha) was 55, the “Plant response rating, Morningglory” value ([2]; 62 g ai/ha) was 70 and the “Plant response rating, Morningglory” value ([2]; 125 g ai/ha) was 75. For the same molecule, the “Plant response rating, Ryegrass, Italian” value ([3]; 16 g ai/ha) was 5, the “Plant response rating, Ryegrass, Italian” value ([3]; 31 g ai/ha) was 5 and the “Plant response rating, Ryegrass, Italian” value ([3]; 62 g ai/ha) was 10. For the same molecule, the “Plant response rating, Ryegrass, Italian” value ([3]; 125 g ai/ha) was 20, the “Plant response rating, Pigweed” value ([4]; 16 g ai/ha) was 70 and the “Plant response rating, Pigweed” value ([4]; 31 g ai/ha) was 90. The “Plant response rating, Pigweed” value ([4]; 62 g ai/ha) was 80, the “Plant response rating, Pigweed” value ([4]; 125 g ai/ha) was 90 and the “Plant response rating, Foxtail, Giant” value ([5]; 16 g ai/ha) was 10. For the same molecule, the “Plant response rating, Foxtail, Giant” value ([5]; 31 g ai/ha) was 15, the “Plant response rating, Foxtail, Giant” value ([5]; 62 g ai/ha) was 10 and the “Plant response rating, Foxtail, Giant” value ([5]; 125 g ai/ha) was 20. The “Plant response rating, Kochia” value (kochia (Kochia scoparia) [6]; 16 g ai/ha) was 85, the “Plant response rating, Kochia” value (kochia (Kochia scoparia) [6]; 31 g ai/ha) was 90 and the “Plant response rating, Kochia” value (kochia (Kochia scoparia) [6]; 62 g ai/ha) was 90. For the same molecule, the “Plant response rating, Kochia” value (kochia (Kochia scoparia) [6]; 125 g ai/ha) was 95, the “Plant response rating, Blackgrass” value ([7]; 16 g ai/ha) was 10 and the “Plant response rating, Blackgrass” value ([7]; 31 g ai/ha) was 10. For the same molecule, the “Plant response rating, Blackgrass” value ([7]; 62 g ai/ha) was 30, the “Plant response rating, Blackgrass” value ([7]; 125 g ai/ha) was 25 and the “Plant response rating, Oat, Wild” value (wild oat (Avena fatua); 16 g ai/ha) was 0. For the same molecule, the “Plant response rating, Oat, Wild” value (wild oat (Avena fatua); 31 g ai/ha) was 5, the “Plant response rating, Oat, Wild” value (wild oat (Avena fatua); 62 g ai/ha) was 15 and the “Plant response rating, Oat, Wild” value (wild oat (Avena fatua); 125 g ai/ha) was 25. The “Plant response rating, Wheat” value ([8]; 16 g ai/ha) was 0, the “Plant response rating, Wheat” value ([8]; 31 g ai/ha) was 5 and the “Plant response rating, Wheat” value ([8]; 62 g ai/ha) was 10. For the same molecule, the “Plant response rating, Wheat” value ([8]; 125 g ai/ha) was 10, the “Plant response rating, Velvetleaf” value ([9]; 16 g ai/ha) was 15 and the “Plant response rating, Velvetleaf” value ([9]; 31 g ai/ha) was 35. The “Plant response rating, Velvetleaf” value ([9]; 62 g ai/ha) was 60, the “Plant response rating, Velvetleaf” value ([9]; 125 g ai/ha) was 65 and the “Plant response rating, Nutsedge, Yellow” value ([10]; 16 g ai/ha) was 5. For the same molecule, the “Plant response rating, Nutsedge, Yellow” value ([10]; 31 g ai/ha) was 10, the “Plant response rating, Nutsedge, Yellow” value ([10]; 62 g ai/ha) was 15 and the “Plant response rating, Nutsedge, Yellow” value ([10]; 125 g ai/ha) was 20. The “Plant response rating, Chickweed” value ([11]; 16 g ai/ha) was 70, the “Plant response rating, Chickweed” value ([11]; 31 g ai/ha) was 30 and the “Plant response rating, Chickweed” value ([11]; 62 g ai/ha) was 70. For the same molecule, the “Plant response rating, Chickweed” value ([11]; 125 g ai/ha) was 80, the “Plant response rating, Waterhemp” value ([12]; 16 g ai/ha) was 75 and the “Plant response rating, Waterhemp” value ([12]; 31 g ai/ha) was 80. For the same molecule, the “Plant response rating, Waterhemp” value ([12]; 62 g ai/ha) was 98, the “Plant response rating, Waterhemp” value ([12]; 125 g ai/ha) was 98 and the “Plant response rating, Barnyardgrass” value ([13]; 16 g ai/ha) was 5. The “Plant response rating, Barnyardgrass” value ([13]; 31 g ai/ha) was 10, the “Plant response rating, Barnyardgrass” value ([13]; 62 g ai/ha) was 25 and the “Plant response rating, Barnyardgrass” value ([13]; 125 g ai/ha) was 65. For the same molecule, the “Plant response rating (0 to 100 scale, 0 no effect, 100 complete control), Ryegrass, Italian” value ([14]; 31 g ai/ha) was 10, the “Plant response rating (0 to 100 scale, 0 no effect, 100 complete control), Ryegrass, Italian” value ([14]; 125 g ai/ha) was 50 and the “Plant response rating (0 to 100 scale, 0 no effect, 100 complete control), Pigweed” value ([15]; 31 g ai/ha) was 50. For the same molecule, the “Plant response rating (0 to 100 scale, 0 no effect, 100 complete control), Pigweed” value ([15]; 125 g ai/ha) was 100, the “Plant response rating (0 to 100 scale, 0 no effect, 100 complete control), Foxtail, Giant” value ([16]; 31 g ai/ha) was 70 and the “Plant response rating (0 to 100 scale, 0 no effect, 100 complete control), Foxtail, Giant” value ([16]; 125 g ai/ha) was 100. For the same molecule, the “Plant response rating (0 to 100 scale, 0 no effect, 100 complete control), Kochia” value (kochia (Kochia scoparia) [17]; 31 g ai/ha) was 30, the “Plant response rating (0 to 100 scale, 0 no effect, 100 complete control), Kochia” value (kochia (Kochia scoparia) [17]; 125 g ai/ha) was 60 and the “Plant response rating (0 to 100 scale, 0 no effect, 100 complete control), Ragweed” value ([18]; 31 g ai/ha) was 0. For the same molecule, the “Plant response rating (0 to 100 scale, 0 no effect, 100 complete control), Ragweed” value ([18]; 125 g ai/ha) was 10, the “Plant response rating (0 to 100 scale, 0 no effect, 100 complete control), Barnyardgrass” value ([19]; 31 g ai/ha) was 50 and the “Plant response rating (0 to 100 scale, 0 no effect, 100 complete control), Barnyardgrass” value ([19]; 125 g ai/ha) was 90.
